For data set [1] the following is noted: 93.2 kPa, Liquid; for speed of sound: Frequency=3 MHz, Sing-around technique in a fixed-path interferometer; for mass density: Vibrating tube method.
The nature of data set [2]: xn = mol fraction of the nth substance listed. As to conditions: 93.2 kPa, Liquid, x2 = 0; for speed of sound: Frequency=3 MHz, Sing-around technique in a fixed-path interferometer; for mass density: Vibrating tube method.

± gives the expanded uncertainty stated by the source.

In the case of `CCO` [ethanol], the speed of sound in data set [1] (293.15 K) stood at 1161 ± 5.2 m/s; in data set [1] (298.15 K) it was 1143.8 ± 5.2 m/s; in data set [1] (303.15 K) it was 1126.8 ± 5.2 m/s; in data set [1] (308.15 K) it was 1109.9 ± 5.2 m/s; in data set [1] (313.15 K), 1093.1 ± 5.2 m/s. The mass density is reported as 789.657 ± 4 kg/m3 in data set [1] (293.15 K); 785.366 ± 4 kg/m3 in data set [1] (298.15 K); 781.043 ± 4 kg/m3 in data set [1] (303.15 K); 776.696 ± 4 kg/m3 in data set [1] (308.15 K); 772.313 ± 4 kg/m3 in data set [1] (313.15 K).
Turning to `CCCCCO` [pentan-1-ol] + CCCC(=O)[O-].CCCC[NH3+], the speed of sound in data set [2] (293.15 K) was 1292.8 ± 5.3 m/s; in data set [2] (298.15 K), 1275.7 ± 5.3 m/s; in data set [2] (303.15 K), 1258.8 ± 5.3 m/s; in data set [2] (308.15 K) it was 1242.1 ± 5.3 m/s; in data set [2] (313.15 K) it was 1225.5 ± 5.3 m/s. The mass density in data set [2] (293.15 K) worked out at 814.807 ± 4 kg/m3; in data set [2] (298.15 K) it was 811.144 ± 4 kg/m3; in data set [2] (303.15 K), 807.455 ± 4 kg/m3; in data set [2] (308.15 K), 803.736 ± 4 kg/m3; in data set [2] (313.15 K), 799.99 ± 4 kg/m3.
Take `CCCO` [propan-1-ol] + CCCC(=O)[O-].CCCC[NH3+]: the speed of sound in data set [2] (293.15 K) amounted to 1223.1 ± 5.3 m/s; in data set [2] (298.15 K), 1205.8 ± 5.3 m/s; in data set [2] (303.15 K), 1188.6 ± 5.3 m/s; in data set [2] (308.15 K), 1171.6 ± 5.3 m/s; in data set [2] (313.15 K), 1154.9 ± 5.3 m/s. For the same compound, the mass density in data set [2] (293.15 K) worked out at 803.625 ± 4 kg/m3; in data set [2] (298.15 K), 799.62 ± 4 kg/m3; in data set [2] (303.15 K), 795.582 ± 4 kg/m3; in data set [2] (308.15 K) it was 791.511 ± 4 kg/m3; in data set [2] (313.15 K), 787.407 ± 4 kg/m3.
As to `CCCCCO` [pentan-1-ol], the speed of sound in data set [1] (293.15 K) was determined as 1292.8 ± 5.3 m/s; in data set [1] (298.15 K), 1275.7 ± 5.3 m/s; in data set [1] (303.15 K) it was 1258.8 ± 5.3 m/s; in data set [1] (308.15 K), 1242.1 ± 5.3 m/s; in data set [1] (313.15 K) it was 1225.5 ± 5.3 m/s. In addition, the mass density in data set [1] (293.15 K) was 814.807 ± 4 kg/m3; in data set [1] (298.15 K), 811.144 ± 4 kg/m3; in data set [1] (303.15 K), 807.455 ± 4 kg/m3; in data set [1] (308.15 K), 803.736 ± 4 kg/m3; in data set [1] (313.15 K), 799.99 ± 4 kg/m3.
For the compound `CO` [methanol] + CCCC(=O)[O-].CCCC[NH3+], the speed of sound in data set [2] (293.15 K) stood at 1119.1 ± 5.2 m/s; in data set [2] (298.15 K), 1102.5 ± 5.2 m/s; in data set [2] (303.15 K), 1086 ± 5.2 m/s; in data set [2] (308.15 K), 1069.7 ± 5.2 m/s; in data set [2] (313.15 K), 1053.6 ± 5.2 m/s. Moreover, the mass density is given as 791.347 ± 4 kg/m3 in data set [2] (293.15 K); 786.636 ± 4 kg/m3 in data set [2] (298.15 K); 781.907 ± 4 kg/m3 in data set [2] (303.15 K); 777.156 ± 4 kg/m3 in data set [2] (308.15 K); 772.385 ± 4 kg/m3 in data set [2] (313.15 K).
Regarding `CCCC(=O)[O-].CCCC[NH3+]` [n-butylammonium butanoate], the speed of sound in data set [1] (293.15 K) came out at 1431.5 ± 5.3 m/s; in data set [1] (298.15 K), 1410.3 ± 5.3 m/s; in data set [1] (303.15 K), 1390.4 ± 5.3 m/s; in data set [1] (308.15 K), 1371.5 ± 5.3 m/s; in data set [1] (313.15 K), 1353.6 ± 5.3 m/s. For the same compound, the mass density was determined as 928.794 ± 4 kg/m3 in data set [1] (293.15 K); 925.509 ± 4 kg/m3 in data set [1] (298.15 K); 922.217 ± 4 kg/m3 in data set [1] (303.15 K); 918.88 ± 4 kg/m3 in data set [1] (308.15 K); 915.567 ± 4 kg/m3 in data set [1] (313.15 K).
For `CCCCO` [butan-1-ol] + CCCC(=O)[O-].CCCC[NH3+], the speed of sound in data set [2] (293.15 K) worked out at 1256.8 ± 5.3 m/s; in data set [2] (298.15 K), 1239.7 ± 5.3 m/s; in data set [2] (303.15 K), 1222.8 ± 5.3 m/s; in data set [2] (308.15 K), 1206.1 ± 5.3 m/s; in data set [2] (313.15 K), 1189.5 ± 5.2 m/s. Moreover, the mass density is reported as 809.523 ± 4 kg/m3 in data set [2] (293.15 K); 805.71 ± 4 kg/m3 in data set [2] (298.15 K); 801.872 ± 4 kg/m3 in data set [2] (303.15 K); 798.004 ± 4 kg/m3 in data set [2] (308.15 K); 794.103 ± 4 kg/m3 in data set [2] (313.15 K).
As to `CO` [methanol], the speed of sound in data set [1] (293.15 K) is 1119.1 ± 5.2 m/s; in data set [1] (298.15 K), 1102.5 ± 5.2 m/s; in data set [1] (303.15 K) it was 1086 ± 5.2 m/s; in data set [1] (308.15 K) it was 1069.7 ± 5.2 m/s; in data set [1] (313.15 K), 1053.6 ± 5.2 m/s. Also, the mass density in data set [1] (293.15 K) was determined as 791.347 ± 4 kg/m3; in data set [1] (298.15 K) it was 786.636 ± 4 kg/m3; in data set [1] (303.15 K), 781.907 ± 4 kg/m3; in data set [1] (308.15 K) it was 777.156 ± 4 kg/m3; in data set [1] (313.15 K) it was 772.385 ± 4 kg/m3.
Turning to `CCCCO` [butan-1-ol], the speed of sound in data set [1] (293.15 K) is on record as 1256.8 ± 5.3 m/s; in data set [1] (298.15 K) it was 1239.7 ± 5.3 m/s; in data set [1] (303.15 K), 1222.8 ± 5.3 m/s; in data set [1] (308.15 K), 1206.1 ± 5.3 m/s; in data set [1] (313.15 K), 1189.5 ± 5.2 m/s. Also, the mass density in data set [1] (293.15 K) was 809.523 ± 4 kg/m3; in data set [1] (298.15 K), 805.71 ± 4 kg/m3; in data set [1] (303.15 K), 801.872 ± 4 kg/m3; in data set [1] (308.15 K), 798.004 ± 4 kg/m3; in data set [1] (313.15 K), 794.103 ± 4 kg/m3.
As to `CCO` [ethanol] + CCCC(=O)[O-].CCCC[NH3+], the speed of sound in data set [2] (293.15 K) was found to be 1161 ± 5.2 m/s; in data set [2] (298.15 K) it was 1143.8 ± 5.2 m/s; in data set [2] (303.15 K) it was 1126.8 ± 5.2 m/s; in data set [2] (308.15 K), 1109.9 ± 5.2 m/s; in data set [2] (313.15 K) it was 1093.1 ± 5.2 m/s. The mass density in data set [2] (293.15 K) was determined as 789.657 ± 4 kg/m3; in data set [2] (298.15 K), 785.366 ± 4 kg/m3; in data set [2] (303.15 K) it was 781.043 ± 4 kg/m3; in data set [2] (308.15 K), 776.696 ± 4 kg/m3; in data set [2] (313.15 K), 772.313 ± 4 kg/m3.
Take `CCCO` [propan-1-ol]: the speed of sound in data set [1] (293.15 K) amounted to 1223.1 ± 5.3 m/s; in data set [1] (298.15 K), 1205.8 ± 5.3 m/s; in data set [1] (303.15 K), 1188.6 ± 5.3 m/s; in data set [1] (308.15 K), 1171.6 ± 5.3 m/s; in data set [1] (313.15 K), 1154.9 ± 5.3 m/s. The mass density was 803.625 ± 4 kg/m3 in data set [1] (293.15 K); 799.62 ± 4 kg/m3 in data set [1] (298.15 K); 795.582 ± 4 kg/m3 in data set [1] (303.15 K); 791.511 ± 4 kg/m3 in data set [1] (308.15 K); 787.407 ± 4 kg/m3 in data set [1] (313.15 K).

The record behind these values is the NIST ThermoML archive (doi:10.1016/j.jct.2016.09.007).
